Results from ChEMBL document CHEMBL3430912, “GSK Tres Cantos Anti-Kinetoplastid Screening (TCAKS) Data”.

How the values were obtained:
Trypanosoma cruzi [1] = test: GSK_TCAKS: pIC50 Trypanosoma cruzi viability assay using beta-GAL activity. This assay was run at single shot at 5uM compound concentration per well. The biological reagents consisted of NIH-3T3 host cells and trypomastigotes parasitic cells; both cell types were set to a 3.3 * 10^5 cells/mL dilution in assay DMEM by means of a CASY cell counter device using a 60um capillary. 6 uL of the mixture were dispensed per well (about 1 * 10^3 host-cells and 1 * 10^3 parasites) with a Multidrop Combi dispenser. […] In all wells, the percentage of DMSO never exceeded 0.5%. Plates incubated for four days at 37C, 5% CO2. The substrate used for the assay fluorescence intensity (FLINT) readout was resorufin-beta-D-galactopiranoside (Sigma-Aldrich) at 5uM per well. It was diluted in PBS supplemented with the soft detergent Igepal (Fluka).; type: functional, organism-based, Mus musculus; conditions: Tulahuen, NIH3T3
Trypanosoma cruzi [2] = test: (§1) GSK_TCAKS: pIC50 Trypanosoma cruzi Imaging: Infected Cells. […] Cells were then washed once with PBS before infection. T. cruzi trypomastigotes, collected at days 5 to 8 after infection from LLC-MK2 parasite infected cultures, were allowed to swim out for 4h at 37C from a centrifuged pellet (2,500 rpm/10 min/room temperature). Trypomastigotes were then collected and counted in a CASY Cell Counter. Trypomastigotes, in supplemented DMEM, were added to H9c2 cultures in a multiplicity of infection of 1 and incubated for 18 h. Cells were washed once with PBS before incubation of the infected H9c2 monolayer with trypsin (Life-Technologies) to detach cells from the flask. Cells were counted in a CASY Cell Counter using a 150 um capillary and their density set at 5 * 10^4 cells per mL in supplemented assay DMEM. Infected H9c2 were dispensed into 384-well poly-lysine coated assay plates at 50uL per well using a Multidrop Combi dispenser. After seeding them, the plates were incubated at 37C, 5% CO2 for 72h. Cultures were then fixed and stained by addition of 50 uL of a solution containing 8% formaldehyde and 4 uM DRAQ5 DNA dye (BioStatus, UK) per well. […] Five images were collected per well for reliable statistical analysis. Automated image analysis was performed with a script developed on Acapella High Content Imaging and Analysis Software (PerkinElmer). Output: percentage of infected cells per well as a second infection marker.; type: functional, organism-based, Rattus norvegicus; conditions: H9c2, 4 h
Trypanosoma cruzi [3] = test: GSK_TCAKS: pIC50 Trypanosoma cruzi Imaging: Amastigotes/Cell. […] Cells were then washed once with PBS before infection. T. cruzi trypomastigotes, collected at days 5 to 8 after infection from LLC-MK2 parasite infected cultures, were allowed to swim out for 4h at 37C from a centrifuged pellet (2,500 rpm/10 min/room temperature). Trypomastigotes were then collected and counted in a CASY Cell Counter. Trypomastigotes, in supplemented DMEM, were added to H9c2 cultures in a multiplicity of infection of 1 and incubated for 18 h. Cells were washed once with PBS before incubation of the infected H9c2 monolayer with trypsin (Life-Technologies) to detach cells from the flask. Cells were counted in a CASY Cell Counter using a 150 um capillary and their density set at 5 * 10^4 cells per mL in supplemented assay DMEM. Infected H9c2 were dispensed into 384-well poly-lysine coated assay plates at 50uL per well using a Multidrop Combi dispenser. After seeding them, the plates were incubated at 37C, 5% CO2 for 72h. Cultures were then fixed and stained by addition of 50 uL of a solution containing 8% formaldehyde and 4 uM DRAQ5 DNA dye (BioStatus, UK) per well. […] Five images were collected per well for reliable statistical analysis. Automated image analysis was performed with a script developed on Acapella High Content Imaging and Analysis Software (PerkinElmer). Output: number of amastigotes per cell as infection level measurement.; type: functional, organism-based, Rattus norvegicus; conditions: H9c2, 4 h
Trypanosoma cruzi [4] = test: as §1, with “H2C9” for “Trypanosoma cruzi”, “H9c2 Host Cardiomyocytes.” for “Infected Cells.”, “Number” for “percentage”, “H9c2 Host Cardiomyocytes nuclei to determine drug-related cytotoxicity.” for “infected cells per well as a second infection marker.”; type: functional, organism-based, Rattus norvegicus; conditions: H9c2, 4 h
Leishmania donovani [5] = test: GSK_TCAKS: pIC50 Leishmania donovani viability assay using fluorescence intensity. Assay plates (1536-well) were prepared by adding 30nL per well of compound. For single shot assay, the final compound concentration was 5uM. […] Briefly, eGFP LdBOB axenic amastigotes were harvested, fixed and counted in a CASY cell counter (Roche-Applied Science). A final concentration of 1.5 * 10^5 cells per well were prepared in amastigote media containing 500 U/mL penicillin/streptomycin (Invitrogen) and 6uL was dispensed to each experimental well using a Multidrop Combi dispenser (Thermo Scientific). 6uL of assay media was dispensed to control columns used as reference for 100% compound response. Following incubation for 72 h at 37C, 5% CO2, 2 uL of resazurin was added to each well at a final concentration of 0.5 mM in phosphate buffered saline (PBS) with IGEPAL (Sigma-Aldrich), 0.05% (v/v).; type: functional, organism-based
Leishmania donovani [6] = test: (§2) GSK_TCAKS: pIC50 Leishmania donovani Imaging: Infected Macrophages. Assay plates (384-well) were prepared by adding 250nL of compound to each well. For single shot assay, the final compound concentration was 5 uM. […] Automated image analysis was performed with a script developed on Acapella High Content Imaging and Analysis Software (PerkinElmer). Output: Percent of infected macrophage cells were reported for each well.; type: functional, organism-based, Homo sapiens; conditions: THP-1
Leishmania donovani [7] = test: as §2, with “Amastigotes/Macrophages.” for “Infected Macrophages.”, “Average number” for “Percent”, “amastigotes per” for “infected”, “cell” for “cells”; type: functional, organism-based, Homo sapiens; conditions: THP-1
Leishmania donovani [8] = test: as §2, with “THP-1 Host” for “Infected”, “THP-1 cell count” for “Percent of infected macrophage cells”; type: functional, organism-based, Homo sapiens
[9] = test system: Trypanosoma brucei brucei; test: GSK_TCAKS: pIC50 Trypanosoma brucei viability assay using fluorescence intensity. Assay plates (1536-well) were prepared by dispensing 25nL of compound solution per well using an Echo acoustic dispenser (Labcyte).; type: functional, organism-based; conditions: Lister 427, 2 h
[10] = test system: Trypanosoma brucei brucei; test: GSK_TCAKS: pIC50 Trypanosoma brucei viability assay using luminiscence. Assay plates (1536-well) were prepared. T. brucei cultures were harvested and counted in a CASY cell counter. A parasite suspension was prepared at a final concentration of 5 * 10^4 cells/mL in complete HMI9 medium and 6uL was dispensed to all wells containing compounds using a Multidrop Combi dispenser. 6uL of HMI9 media with 0.4% DMSO were dispensed to control columns. Plates were incubated for 24 h at 37C, 5% CO2 then tempered for 10 min at room temperature. ATP content was quantified by adding 4 uL of CellTiter-Glo Reagent (Promega) according to the manufacturer's instructions. Luminescence was measured using a ViewLux.; type: functional, organism-based; conditions: Lister 427, CASY
[11] = GSK_TCAKS: pIC50 HepG2 human cell line viability assay using luminiscence. […] Seeding density was checked to ensure that new mono-layers were not more than 50% confluent at the time of harvesting. Cell suspension was added to 500 mL of the same medium at a final density of 1.2 * 10^5 cells/mL. This cell suspension was dispensed (25 uL, 3000 cells per well) into 384-well clear-bottom plates using a Multidrop Combi dispenser. Prior to addition of the cell suspension, the screening compounds (250 nL) were pre-dispensed into the plates with an Echo liquid handler. Plates were incubated for 48 h at 37C, 5% CO2. After incubation, plates equilibrated at room temperature for 30 min before proceeding to develop the luminescent signal. The signal developer, CellTiter-Glo Reagent, was allowed to equilibrate at room temperature for 30 min and added to the plates (25uL per well) using a Multidrop Combi dispenser. Plates were left for 10 min at room temperature for stabilization and then read using a ViewLux.; type: toxicity, cell-based
NIH3T3 = test: GSK_TCAKS: pIC50 NIH 3T3 cell line viability assay using luminiscence. Tissue culture surface treated assay plates (1536-well) were used. […] The 100% cells survival control was determined exposing the host-cells to a 0.5% DMSO concentration, whereas the 100% toxicity control was achieved by seeding the cells in presence of Amphotericin B at 50uM. Plates were incubated for four days at 37C, 5% CO2. The assay readout was developed by addition of 5uL of CellTiter-Glo Reagent following the manufacturer's instructions. Luminiscence was measured using a ViewLux.; type: functional, cell-based; conditions: Mus musculus, NIH3T3, 96 h
[12] = biological target: Sterol 14-alpha demethylase (Trypanosoma cruzi (strain CL Brener), UniProt Q7Z1V1); test: GSK_TCAKS: pIC50 CYP51 from Trypanosoma cruzi.; type: functional
Chain of Sterol 14-alpha demethylase (Q7Z1V1 whole entry): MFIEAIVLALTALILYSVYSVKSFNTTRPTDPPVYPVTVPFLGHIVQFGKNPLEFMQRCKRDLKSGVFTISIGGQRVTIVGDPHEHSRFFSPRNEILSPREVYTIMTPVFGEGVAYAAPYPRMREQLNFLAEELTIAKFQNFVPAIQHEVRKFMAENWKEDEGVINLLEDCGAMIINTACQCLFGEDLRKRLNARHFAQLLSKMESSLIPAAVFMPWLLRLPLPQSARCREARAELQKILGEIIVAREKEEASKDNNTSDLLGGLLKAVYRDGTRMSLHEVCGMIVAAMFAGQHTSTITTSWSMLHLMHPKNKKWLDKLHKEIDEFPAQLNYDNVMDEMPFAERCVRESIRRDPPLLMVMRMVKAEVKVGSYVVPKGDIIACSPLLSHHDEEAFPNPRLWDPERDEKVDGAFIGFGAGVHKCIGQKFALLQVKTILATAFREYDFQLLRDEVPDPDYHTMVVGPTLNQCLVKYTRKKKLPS

Compound | IC50 (Trypanosoma cruzi [1]) [µM] | IC50 (Trypanosoma cruzi [2]) [µM] | IC50 (Trypanosoma cruzi [3]) [µM] | IC50 (Trypanosoma cruzi [4]) [µM] | IC50 (Leishmania donovani [5]) [µM] | IC50 (Leishmania donovani [6]) [µM] | IC50 (Leishmania donovani [7]) [µM] | IC50 (Leishmania donovani [8]) [µM] | IC50 [9] [µM] | IC50 [10] [µM] | IC50 at 48 h [11] [µM] | IC50 (NIH3T3) [µM] | IC50 [12] [µM]
CN(Cc1ccc(C(N)=O)cc1)C(c1ccc(F)cc1)c1cccnc1 (centres undefined) | 0.158 | 0.251 | 0.2 | > 50.1 | > 50.1 | > 50.1 | > 50.1 | > 50.1 | > 39.8 | > 39.8 | > 100 | 31.6 | 0.1
OCCCNc1nc(Nc2ccncc2)nc2ccccc12 | 0.708 | 1.26 | 0.2 | > 50.1 | 39.8 | > 50.1 | > 50.1 | > 50.1 | 25.1 | > 39.8 | > 100 | > 50.1 | > 100
Cc1nn(C)c(Cl)c1CN(Cc1cccnc1)Cc1ccsc1 | 0.178 | 0.316 | 0.316 | > 50.1 | 2 | > 50.1 | 3.16 | > 50.1 | > 39.8 | > 39.8 | > 100 | 20 | 0.0631
CC(Cn1ccnc1)NC(=O)COc1ccc(Cl)c(Cl)c1 (centres undefined) | 0.224 | 0.501 | 0.398 | > 50.1 | > 50.1 | > 50.1 | > 50.1 | > 50.1 | > 39.8 | > 39.8 | > 100 | > 50.1 | 0.0631
Cc1ccc(C)c(OC2CCN(C(=O)C(C)n3ccnc3)CC2)c1 (centres undefined) | 0.178 | 0.398 | 0.316 | > 50.1 | 2.51 | > 50.1 | 0.316 | > 50.1 | > 39.8 | > 39.8 | > 100 | > 50.1 | 0.1
Cc1[nH]c2ccccc2c(=O)c1Cc1c(C)[nH]c2ccccc2c1=O | 2.51 | 3.16 | 1 | > 50.1 | 20 | > 50.1 | > 50.1 | > 50.1 | > 39.8 | > 39.8 | > 100 | > 50.1 | > 100
O=C(c1cnn(-c2ccccc2)n1)N1CCCC(n2ccnc2)C1 (centres undefined) | 0.0562 | 0.0794 | 0.0631 | > 50.1 | 7.94 | > 50.1 | 0.631 | > 50.1 | > 39.8 | 31.6 | > 100 | 20 | 0.0794
CNc1cc(C)nc(C2CN(C(=O)c3n[nH]c4ccccc34)CCO2)c1 (centres undefined) | 1.26 | 2.51 | 0.794 | > 50.1 | > 50.1 | > 50.1 | > 50.1 | > 50.1 | 20 | > 39.8 | > 100 | > 50.1 | > 100
